From paper PMC10845205, “Discovery of novel antibacterial agent for the infected wound treatment: all-hydrocarbon stapling optimization of LL-37” (Theranostics, 2024)
Converted amounts (≈) assume the structure as drawn. Positions of bridges follow the written chain, without caps; N, C: chain ends. Non-standard residues stand in square brackets, D forms with d. Residues, ends and D or L forms follow the SMILES beside them. S5 = C=CCCC[C@](C)(N)C(=O)O

How the values were obtained:
[1] = Hydrophobicity by RP-HPLC retention time; type: physicochemical; settings: chromatographic, reverse-phase C18 column, CH3CN/H2O containing 0.1%TFA from 10% to 90% over 20 min, UV 220 nm
From the text: To uncover the structure-activity relationship of KR-12 and its stapled derivatives, their physicochemical properties in terms of hydrophobicity, net charge and α-helicity were investigated (Table 2).

rabbit erythrocytes = test: Hemolysis assay; settings: rabbit erythrocytes 4% (v/v), 256 μg/mL peptide, 1 h 37 °C, absorbance 570 nm, 0.1% Triton X-100 control
Experimental: The hemolytic activity of peptides was tested using rabbit erythrocytes (Figure S13). […]
the supernatant was collected and analyzed by RP-HPLC, with a UV detector monitored at 220 nm. Record the peak area of the intact peptide and calculate the percentage of remaining peptide based on the integrated area as, Peptide remaining (%) = peak area of remaining peptide/peak area of intact peptide×100%. Experiments were performed […]
with 200 μL of 4% (v/v) rabbit erythrocyte suspension, and the mixed solution was diluted with rabbit red blood cell suspension to obtain a series of peptide stock solution with different concentrations by fold dilution. […] Separate the supernatant and use a microplate reader (BioTek, USA) to measure hemoglobin release. Measure the absorbance at a wavelength of 570nm and calculate the percentage of hemolysis as follows: hemolysis (%) = (Abspeptide-Absblank)/(Abscontrol-Absblank), where Absblank and Abscontrol were absorbance of samples treated with PBS and 0.1% Triton X-100, […]
N-phenyl-1-naphthylamine (NPN, Macklin, China) was used to evaluate the integrity of OM of E. coli treated with the linear and stapled peptides. […] Subsequently, add a final concentration of 10 μM of NPN in each well of the plate and after incubation for 30 m inutes, record the fluorescence at 420 nm using a microplate reader with an exc itation wavelength of 350 […]

NIH-3T3 cell = settings: CCK-8, 24 h incubation, nonlinear regression, 3 independent measurements
Experimental: For development of the stapled KR-12 derivatives to treat bacterial infections in vivo, their cytotoxicity was examined via the CCK-8 assay, which could provide a quantitative assessment of cell viability based on the dehydrogenase activity. The mouse embryonic fibroblast NIH-3T3 cell was selected and incubated with various concentrations of KR-12 and its stapled derivatives.
Mouse embryonic fibroblast cells NIH-3T3 and mouse monocyte macrophage leukemia cells RAW264.7 were obtained from Shanghai Institute of Biochemistry and Cell Biology, Chinese Academy of Sciences. These two cells were maintained in DMEM and RPMI-1640, respectively. Both media were supplemented with 10% FBS and 1% 100 U/mL penicillin-streptomycin solution. Cells were maintained at 37 °C in a 5% CO2 and humidified incubator. Replace the culture medium every day until the cell grows to confluence. Cells were then treated with 0.25% trypsin–EDTA and split using fresh medium for either passage or analysis.
CCK-8 cell counting kit was utilized to examine the cytotoxicity of the linear and stapled peptides. NIH-3T3 cell was planked at a density of 1.5×10^4 cell/well in a 96 - well plate and incubated it for 24 hours at 37 °C. Cells were then treated with different concentrations of peptides in fresh DMEM and incubated for 24 hours before the addition of 10 μL CCK -8 and incubation for a further 1 hour. Measure the absorbance at 450nm using a microplate reader (BioTek, USA) and calculate the percentage of cell viability as: cell viability (%) = (Abspeptide-Absblank)/(Abscontrol-Absblank)×100%, where Abscontrol is the absorbance of cells treated with PBS and Abs blank is the absorbance of the cell-free medium. The data was fitted using the nonlinear regression within

[2] = α-helicity by circular dichroism; type: physicochemical; settings: CD, aqueous solution containing 50% trifluoroethanol, from [θ]222, 25 °C
Experimental: cm2 ∙ dmol−1) after subtracting the background using the following equation:
[θ]=(θ×1000)/( c ×l ×n ), among which, θ is the ellipticity recorded (mdeg), c is the concentration of peptide (M), l is the quartz cuvette’s optical path length (cm), and n is the amino acid number of the peptide. The helicity of peptides was calculated using the following equation: α = [θ]222/[θ]max ×100%, where [θ]222 is the mean residue ellipticity of the peptide at 222 nm; [ θ]max = (−44,000 +250T) (1−k/n), k = 4, n is the number of amino acids, T = 25 °C.
Bacterial strains and culture
Bacterial type stains ATCC 25923 S. aureus, ATCC 12228 S. epidermidis, ATCC […]
aeruginosa and ATCC 13883 K. pneumoniae were obtained from Shanghai Bioresource Collection Center. The bacterial culture medium was purchased from Oxoid and autoclaved according to the instructions from manufacturer. […]
The minimal inhibition concentration (MIC) of the linear and stapled peptides was determined using the microbroth dilution method from the Clinical and Laboratory Standards Institute (CLSI)[2, 3]. […]
10 μL AlamarBlue cell viability reagent (ThermoFisher Scientific, UK) was added to each well, then the plate was re -incubated for a further 2 hours at 37 °C. The MIC was recorded as the minimum concentration of peptides required to completely in hibit bacteria growth. […]

CC[C@H](C)[C@H](NC(=O)[C@H](CCCNC(=N)N)NC(=O)[C@H](CCCCN)NC(C)=O)C(=O)N[C@H](C(=O)N[C@@H](CCC(N)=O)C(=O)N[C@@H](CCCNC(=N)N)C(=O)N[C@H](C(=O)N[C@@]1(C)CCCC=CCCC[C@@](C)(C(N)=O)NC(=O)[C@H](CC(C)C)NC(=O)[C@H](Cc2ccccc2)NC(=O)[C@H](CC(=O)O)NC1=O)[C@@H](C)CC)C(C)C [KR-12 (K8, R12)] (Ac-KRIVQRI[S5]DFL[S5]-NH2; staple 8-12)
TR (retention time, measure of hydrophobicity) [1]: 18.2 min
H256 (hemolysis percentage) (rabbit erythrocytes): 77.2 ± 0.3%
IC50 against NIH-3T3 cell (NIH-3T3 cell): 52.8 µg/mL (≈ 33.4 µM)
α-helicity [2]: 50.0 ± 0.6%
